Measurements as given in patent US20140377216A1, “ANTICANCER FUSION PROTEIN” (ADAMED SP. Z.O.O., priority 2011, published 2014).

Tested on: human pancreas cancer PANC-1
Experiment: Pancreas cancer model, Experiment A: PANC-1 xenograft
Format: in vivo, Crl:SHO-PrkdcscidHrhr mice
Conditions: 20 mg/kg i.v. 6 times every second day, 42 day
Procedure: Tumor size was measured using electronic calliper, tumor volume was calculated using the formula: (a^2×b)/2, where a=shorter diagonal of the tumor (mm) and b=longer diagonal of the tumor (mm). Inhibition of tumor growth was calculated using the formula:
TGI[%](Tumor growth inhibition)=(WT/WC)×100−100%
wherein WT is the average tumor volume in the treatment group, and WC is the average tumor volume in the control group.
On day 0 Crl:SHO-Prkdc^scidHr^hr mice were grafted subcutaneously (s.c.) in the right side with 5×10^6 of PANC-1 cells suspended in 0.1 ml of the mixture HBSS:Matrigel 3:1 using syringe with a needle 0.5×25 mm (Bogmark). On the 31 day of the experiment mice were randomized to obtain the average size of tumors in the group of ˜110 mm^3 and assigned to treatment groups. The treatment groups were administered with the preparations of fusion protein of the invention of Ex. 11^a (40 mg/kg), and rhTRAIL114-281 (20 mg/kg) as a comparison against formulation buffer (19 mM NaH2PO4, 81 mM Na2HPO4, 50 mM NaCl, 5 mM glutathione, 0.1 mM ZnCl2, 10% glycerol, pH 7.4) as a control. The preparations were administered intravenously (i.v) 6 times once daily every second day. On the 42 day of the experiment mice were sacrificed by disruption of the spinal cord.

rhTRAIL114-281: recombinant human soluble TRAIL, amino acids 114-281 of hTRAIL, used as comparative reference
TGI (tumor growth inhibition) relative to the control: 26%
